Type in all cases: functional
Experiment [1] relates to Mycobacterium intracellulare. Description: Antibacterial activity against Mycobacterium intracellular.
The subject of experiment [2] is Mycobacterium tuberculosis. Description: Antibacterial activity against Mycobacterium tuberculosis H37Rv.
The test system of another experiment is Mycobacterium kansasii. Description: Antibacterial activity against Mycobacterium kansasii.

Consider 30 compounds from ChEMBL document CHEMBL1122862, “Synthesis and antibacterial activity of 2,2'-dithiobis(benzamide) derivatives against Mycobacterium species” (1985).

The term MIC denotes the lowest concentration found to suppress growth.

Each structure is given as a SMILES string. Converted amounts (≈) assume the structure as drawn.

As for `CCCCCC(=O)OCCCNC(=O)c1ccccc1SSc1ccccc1C(=O)NCCCOC(=O)CCCCC`, the figures for the MIC (in experiment [1]; in experiment [2]; in the experiment with Mycobacterium kansasii) were 12.5 µg/mL (≈ 20.3 µM), 3.13 µg/mL (≈ 5.07 µM) and 0.39 µg/mL (≈ 0.632 µM), respectively.
As to `O=C(Nc1cccc(C(F)(F)F)c1)c1ccccc1SSc1ccccc1C(=O)Nc1cccc(C(F)(F)F)c1`, the MIC was determined as 25 µg/mL (≈ 42.2 µM) in experiment [1], 12.5 µg/mL (≈ 21.1 µM) in experiment [2] and 25 µg/mL (≈ 42.2 µM) against Mycobacterium kansasii.
Regarding `O=C1c2ccccc2S(=O)(=O)N1CO`, the MIC in experiment [1] is 100 µg/mL (≈ 469 µM); in experiment [2], above 100 µg/mL; against Mycobacterium kansasii, above 100 µg/mL.
Consider `CCCCCCCCCCCCCCCCCCNC(=O)c1ccccc1SSc1ccccc1C(=O)NCCCCCCCCCCCCCCCCCC`, for which the MIC is above 100 µg/mL in experiment [1], 100 µg/mL (≈ 124 µM) in experiment [2] and above 100 µg/mL in the experiment with Mycobacterium kansasii.
As for `O=c1c2ccccc2sn1CO`, the MIC (in experiment [1]; in experiment [2]; with Mycobacterium kansasii) was 12.5 µg/mL (≈ 69 µM) in each case.
In the case of `CCCCCCCC(=O)OCCCNC(=O)c1ccccc1SSc1ccccc1C(=O)NCCCOC(=O)CCCCCCC`, the MIC in experiment [1] worked out at 12.5 µg/mL (≈ 18.6 µM); in experiment [2], 0.39 µg/mL (≈ 0.58 µM); against Mycobacterium kansasii, 0.78 µg/mL (≈ 1.16 µM).
In the same order, the values of `O=C(Nc1ccc(S(=O)(=O)Nc2nc3ccccc3s2)cc1)c1ccccc1SSc1ccccc1C(=O)Nc1ccc(S(=O)(=O)Nc2nc3ccccc3s2)cc1` are 100 µg/mL (≈ 113 µM), 100 µg/mL (≈ 113 µM) and 50 µg/mL (≈ 56.7 µM).
In the case of `O=C(Nc1ccc(Br)c2ccccc12)c1ccccc1SSc1ccccc1C(=O)Nc1ccc(Br)c2ccccc12`, the MIC in experiment [1] was above 100 µg/mL; in experiment [2], 12.5 µg/mL (≈ 17.5 µM); against Mycobacterium kansasii, 50 µg/mL (≈ 70 µM).
In the same order, the values of `O=C(NC1CCC(O)CC1)c1ccccc1SSc1ccccc1C(=O)NC1CCC(O)CC1` (stereo not given) are 25 µg/mL (≈ 49.9 µM), 12.5 µg/mL (≈ 25 µM) and 25 µg/mL (≈ 49.9 µM).
In the same order, the values of `O=C(Nc1c([N+](=O)[O-])ccc2ccccc12)c1ccccc1SSc1ccccc1C(=O)Nc1c([N+](=O)[O-])ccc2ccccc12` are above 100 µg/mL, 50 µg/mL (≈ 77.3 µM) and 50 µg/mL (≈ 77.3 µM).
In the same order, the values of `COC(CNC(=O)c1ccccc1SSc1ccccc1C(=O)NCC(OC)OC)OC` are 12.5 µg/mL (≈ 26 µM), 3.13 µg/mL (≈ 6.51 µM) and 12.5 µg/mL (≈ 26 µM).
Regarding `CCCCCCCCCCCC(=O)OCCNC(=O)c1ccccc1SSc1ccccc1C(=O)NCCOC(=O)CCCCCCCCCCC`, the figures for the MIC (in experiment [1]; in experiment [2]; in the experiment with Mycobacterium kansasii) were 100 µg/mL (≈ 132 µM), 6.25 µg/mL (≈ 8.26 µM) and 25 µg/mL (≈ 33 µM), respectively.
On the same counts, the results for `CCCCCCCCCCCCCCCC(=O)OCCCNC(=O)c1ccccc1SSc1ccccc1C(=O)NCCCOC(=O)CCCCCCCCCCCCCCC` are above 100 µg/mL, 50 µg/mL (≈ 55.7 µM) and 100 µg/mL (≈ 111 µM).
On the same counts, the results for `O=C(c1ccccc1SSc1ccccc1C(=O)N1CCN(c2ccccc2)CC1)N1CCN(c2ccccc2)CC1` are 25 µg/mL (≈ 42 µM), 12.5 µg/mL (≈ 21 µM) and 50 µg/mL (≈ 84.1 µM).
In the same order, the values of `O=C(NCCO)c1ccc(Cl)cc1SSc1ccc(Cl)cc1C(=O)NCCO` are 50 µg/mL (≈ 108 µM), 6.25 µg/mL (≈ 13.5 µM) and 25 µg/mL (≈ 54.2 µM).
`CCCCCCCCCC(=O)OCCCNC(=O)c1ccccc1SSc1ccccc1C(=O)NCCCOC(=O)CCCCCCCCC`: the MIC came out at 12.5 µg/mL (≈ 17.1 µM) in experiment [1], 0.39 µg/mL (≈ 0.535 µM) in experiment [2] and 0.39 µg/mL (≈ 0.535 µM) in the experiment with Mycobacterium kansasii.
`NC(=O)c1ccccc1SSc1ccccc1C(N)=O`: the MIC stood at 25 µg/mL (≈ 82.1 µM) in experiment [1], 12.5 µg/mL (≈ 41.1 µM) in experiment [2] and 25 µg/mL (≈ 82.1 µM) with Mycobacterium kansasii.
As for `CCCCCCCCCCCCCCCC(=O)OC(C)CNC(=O)c1ccccc1SSc1ccccc1C(=O)NCC(C)OC(=O)CCCCCCCCCCCCCCC` (stereo not given), the MIC in experiment [1] was above 100 µg/mL; in experiment [2], 25 µg/mL (≈ 27.9 µM); against Mycobacterium kansasii, above 100 µg/mL.
Regarding `O=C(NC1CCCCC1)c1ccccc1SSc1ccccc1C(=O)NC1CCCCC1`, the figures for the MIC (in experiment [1]; in experiment [2]; against Mycobacterium kansasii) were above 100 µg/mL, 12.5 µg/mL (≈ 26.7 µM) and 100 µg/mL (≈ 213 µM), respectively.
Turning to `CCCC(=O)OCCCNC(=O)c1ccccc1SSc1ccccc1C(=O)NCCCOC(=O)CCC`, the MIC in experiment [1] turned out to be 25 µg/mL (≈ 44.6 µM); in experiment [2], 6.25 µg/mL (≈ 11.1 µM); against Mycobacterium kansasii it was 6.25 µg/mL (≈ 11.1 µM).
On to `O=C(Nc1cccc2ccc(O)cc12)c1ccccc1SSc1ccccc1C(=O)Nc1cccc2ccc(O)cc12`, for which the MIC (in experiment [1]; in experiment [2]; in the experiment on Mycobacterium kansasii) was 50 µg/mL (≈ 84.9 µM) in each case.
Consider `COCCNC(=O)c1ccccc1SSc1ccccc1C(=O)NCCOC`, for which the MIC turned out to be 12.5 µg/mL (≈ 29.7 µM) in experiment [1], 6.25 µg/mL (≈ 14.9 µM) in experiment [2] and 12.5 µg/mL (≈ 29.7 µM) against Mycobacterium kansasii.
As to `O=C(c1ccccc1SSc1ccccc1C(=O)N1CCOCC1)N1CCOCC1`, the MIC in experiment [1] was above 100 µg/mL; in experiment [2], 12.5 µg/mL (≈ 28.1 µM); against Mycobacterium kansasii, above 100 µg/mL.
On to `O=C(c1ccccc1SSc1ccccc1C(=O)N(c1ccccc1)c1ccccc1)N(c1ccccc1)c1ccccc1`, for which the MIC (in experiment [1]; in experiment [2]; with Mycobacterium kansasii) was above 100 µg/mL each time.
Consider `CCC(O)CNC(=O)c1ccccc1SSc1ccccc1C(=O)NCC(O)CC` (stereo not given), for which the MIC (in experiment [1]; in experiment [2]; against Mycobacterium kansasii) was 12.5 µg/mL (≈ 27.9 µM) in each case.
As for `Cl.Cl.O=C(NCC1CCNCC1)c1ccccc1SSc1ccccc1C(=O)NCC1CCNCC1`, the MIC in experiment [1] was above 100 µg/mL; in experiment [2], 100 µg/mL; in the experiment on Mycobacterium kansasii it was above 100 µg/mL.
On to `CC[C@@H](CO)NCCN[C@@H](CC)CO` [ETHAMBUTOL], for which the MIC was 12.5 µg/mL (≈ 61.2 µM) in experiment [1], 0.78 µg/mL (≈ 3.82 µM) in experiment [2] and 12.5 µg/mL (≈ 61.2 µM) against Mycobacterium kansasii.
For the compound `NNC(=O)c1ccncc1` [ISONIAZID], the MIC was 6.25 µg/mL (≈ 45.6 µM) in experiment [1], 0.05 µg/mL (≈ 0.365 µM) in experiment [2] and 1.56 µg/mL (≈ 11.4 µM) with Mycobacterium kansasii.
On the same counts, the results for `NC[C@H]1O[C@H](O[C@H]2[C@H](O)[C@@H](O[C@H]3O[C@H](CO)[C@@H](O)[C@H](N)[C@H]3O)[C@H](N)C[C@@H]2N)[C@H](O)[C@@H](O)[C@@H]1O` [KANAMYCIN] are 6.25 µg/mL (≈ 12.9 µM), 3.13 µg/mL (≈ 6.46 µM) and 25 µg/mL (≈ 51.6 µM).
As for `CO[C@H]1/C=C/O[C@@]2(C)Oc3c(C)c(O)c4c(O)c(c(/C=N/N5CCN(C)CC5)c(O)c4c3C2=O)NC(=O)/C(C)=C\C=C\[C@H](C)[C@H](O)[C@@H](C)[C@@H](O)[C@@H](C)[C@H](OC(C)=O)[C@@H]1C` [RIFAMPIN], the MIC is 0.2 µg/mL (≈ 0.243 µM) in experiment [1], 0.05 µg/mL (≈ 0.0608 µM) in experiment [2] and 0.05 µg/mL (≈ 0.0608 µM) in the experiment on Mycobacterium kansasii.
